Laboratory results published in the NIST ThermoML archive (doi:10.1016/j.jct.2005.04.019).
± gives the expanded uncertainty stated by the source.

Experiments:
[1] = xn = mol fraction of the nth substance listed; details: 298.15 K, 101 kPa, Liquid; for speed of sound: Quartz crystal interferometer (Mittal Enterprises, India)
[2] = 298.15 K, 101.33 kPa, Liquid

CC1CCCCC1 [methylcyclohexane] + CC(C)O
speed of sound ([1]; x1 = 0.1123): 1143 ± 4 m/s
speed of sound ([1]; x1 = 0.2053): 1143 ± 4 m/s
speed of sound ([1]; x1 = 0.3034): 1144 ± 4 m/s
speed of sound ([1]; x1 = 0.3937): 1148 ± 4 m/s
speed of sound ([1]; x1 = 0.5031): 1155 ± 4 m/s
speed of sound ([1]; x1 = 0.5788): 1160 ± 4 m/s
speed of sound ([1]; x1 = 0.6715): 1168 ± 4 m/s
speed of sound ([1]; x1 = 0.7466): 1176 ± 4 m/s
speed of sound ([1]; x1 = 0.7715): 1178 ± 4 m/s
speed of sound ([1]; x1 = 0.8299): 1184 ± 4 m/s
speed of sound ([1]; x1 = 0.8993): 1194 ± 4 m/s
speed of sound ([1]; x1 = 0.9472): 1201 ± 4 m/s
mass density ([1]; x1 = 0.0648): 778.57 ± 0.46 kg/m3
viscosity ([1]; x1 = 0.0648): 1.771 ± 0.022 mPa·s
mass density ([1]; x1 = 0.1102): 776.98 ± 0.46 kg/m3
viscosity ([1]; x1 = 0.1102): 1.589 ± 0.02 mPa·s
mass density ([1]; x1 = 0.1475): 775.78 ± 0.46 kg/m3
viscosity ([1]; x1 = 0.1475): 1.462 ± 0.019 mPa·s
mass density ([1]; x1 = 0.2041): 774.1 ± 0.46 kg/m3
viscosity ([1]; x1 = 0.2041): 1.315 ± 0.017 mPa·s
mass density ([1]; x1 = 0.2422): 773.07 ± 0.46 kg/m3
viscosity ([1]; x1 = 0.2422): 1.232 ± 0.016 mPa·s
mass density ([1]; x1 = 0.303): 771.57 ± 0.46 kg/m3
viscosity ([1]; x1 = 0.303): 1.113 ± 0.015 mPa·s
mass density ([1]; x1 = 0.3511): 770.5 ± 0.46 kg/m3
viscosity ([1]; x1 = 0.3511): 1.034 ± 0.014 mPa·s
mass density ([1]; x1 = 0.3947): 769.61 ± 0.46 kg/m3
viscosity ([1]; x1 = 0.3947): 0.975 ± 0.013 mPa·s
mass density ([1]; x1 = 0.4603): 768.4 ± 0.46 kg/m3
viscosity ([1]; x1 = 0.4603): 0.896 ± 0.012 mPa·s
mass density ([1]; x1 = 0.4954): 767.81 ± 0.46 kg/m3
viscosity ([1]; x1 = 0.4954): 0.86 ± 0.012 mPa·s
mass density ([1]; x1 = 0.5589): 766.86 ± 0.46 kg/m3
viscosity ([1]; x1 = 0.5589): 0.801 ± 0.011 mPa·s
mass density ([1]; x1 = 0.578): 766.6 ± 0.46 kg/m3
viscosity ([1]; x1 = 0.578): 0.789 ± 0.011 mPa·s
mass density ([1]; x1 = 0.6707): 765.53 ± 0.46 kg/m3
viscosity ([1]; x1 = 0.6707): 0.734 ± 0.01 mPa·s
mass density ([1]; x1 = 0.7727): 764.75 ± 0.46 kg/m3
viscosity ([1]; x1 = 0.7727): 0.695 ± 0.01 mPa·s
mass density ([1]; x1 = 0.9011): 764.45 ± 0.46 kg/m3
viscosity ([1]; x1 = 0.9011): 0.679 ± 0.01 mPa·s

CCCCC(C)O (stereo not given) [2-hexanol] + CC1CCCCC1
speed of sound ([1]; x2 = 0.1002): 1252 ± 4 m/s
speed of sound ([1]; x2 = 0.2041): 1239 ± 4 m/s
speed of sound ([1]; x2 = 0.2837): 1231 ± 4 m/s
speed of sound ([1]; x2 = 0.3521): 1225 ± 4 m/s
speed of sound ([1]; x2 = 0.3989): 1222 ± 4 m/s
speed of sound ([1]; x2 = 0.4948): 1216 ± 4 m/s
speed of sound ([1]; x2 = 0.5978): 1212 ± 4 m/s
speed of sound ([1]; x2 = 0.6904): 1209 ± 4 m/s
speed of sound ([1]; x2 = 0.808): 1208 ± 4 m/s
speed of sound ([1]; x2 = 0.8967): 1214 ± 4 m/s
speed of sound ([1]; x2 = 0.9509): 1215 ± 4 m/s
mass density ([1]; x2 = 0.1017): 804.9 ± 0.81 kg/m3
viscosity ([1]; x2 = 0.1017): 3.089 ± 0.045 mPa·s
mass density ([1]; x2 = 0.1514): 802.31 ± 0.79 kg/m3
viscosity ([1]; x2 = 0.1514): 2.701 ± 0.039 mPa·s
mass density ([1]; x2 = 0.2026): 799.67 ± 0.76 kg/m3
viscosity ([1]; x2 = 0.2026): 2.344 ± 0.034 mPa·s
mass density ([1]; x2 = 0.2473): 797.41 ± 0.75 kg/m3
viscosity ([1]; x2 = 0.2473): 2.082 ± 0.03 mPa·s
mass density ([1]; x2 = 0.2995): 794.85 ± 0.72 kg/m3
viscosity ([1]; x2 = 0.2995): 1.836 ± 0.026 mPa·s
mass density ([1]; x2 = 0.3508): 792.24 ± 0.7 kg/m3
viscosity ([1]; x2 = 0.3508): 1.632 ± 0.023 mPa·s
mass density ([1]; x2 = 0.4019): 789.75 ± 0.68 kg/m3
viscosity ([1]; x2 = 0.4019): 1.468 ± 0.021 mPa·s
mass density ([1]; x2 = 0.452): 787.34 ± 0.66 kg/m3
viscosity ([1]; x2 = 0.452): 1.345 ± 0.019 mPa·s
mass density ([1]; x2 = 0.4972): 785.2 ± 0.64 kg/m3
viscosity ([1]; x2 = 0.4972): 1.227 ± 0.017 mPa·s
mass density ([1]; x2 = 0.5955): 780.68 ± 0.6 kg/m3
viscosity ([1]; x2 = 0.5955): 1.052 ± 0.015 mPa·s
mass density ([1]; x2 = 0.6956): 776.28 ± 0.57 kg/m3
viscosity ([1]; x2 = 0.6956): 0.917 ± 0.013 mPa·s
mass density ([1]; x2 = 0.8089): 771.63 ± 0.52 kg/m3
viscosity ([1]; x2 = 0.8089): 0.798 ± 0.011 mPa·s
mass density ([1]; x2 = 0.8987): 768.24 ± 0.49 kg/m3
viscosity ([1]; x2 = 0.8987): 0.729 ± 0.01 mPa·s

CCCCCCC(C)O (stereo not given) [2-octanol] + CC1CCCCC1
speed of sound ([1]; x2 = 0.1001): 1292 ± 4 m/s
speed of sound ([1]; x2 = 0.2032): 1282 ± 4 m/s
speed of sound ([1]; x2 = 0.3003): 1269 ± 4 m/s
speed of sound ([1]; x2 = 0.4001): 1258 ± 4 m/s
speed of sound ([1]; x2 = 0.5043): 1247 ± 4 m/s
speed of sound ([1]; x2 = 0.5973): 1239 ± 4 m/s
speed of sound ([1]; x2 = 0.6889): 1231 ± 4 m/s
speed of sound ([1]; x2 = 0.8109): 1222 ± 4 m/s
speed of sound ([1]; x2 = 0.9008): 1219 ± 4 m/s
speed of sound ([1]; x2 = 0.9466): 1216 ± 4 m/s
mass density ([1]; x2 = 0.1006): 811.52 ± 1.2 kg/m3
viscosity ([1]; x2 = 0.1006): 4.941 ± 0.088 mPa·s
mass density ([1]; x2 = 0.1185): 810.68 ± 1.2 kg/m3
viscosity ([1]; x2 = 0.1185): 4.692 ± 0.083 mPa·s
mass density ([1]; x2 = 0.1672): 808.39 ± 1.1 kg/m3
viscosity ([1]; x2 = 0.1672): 4.097 ± 0.071 mPa·s
mass density ([1]; x2 = 0.2104): 806.32 ± 1.1 kg/m3
viscosity ([1]; x2 = 0.2104): 3.651 ± 0.062 mPa·s
mass density ([1]; x2 = 0.2489): 804.45 ± 1.1 kg/m3
viscosity ([1]; x2 = 0.2489): 3.308 ± 0.055 mPa·s
mass density ([1]; x2 = 0.2536): 804.22 ± 1.1 kg/m3
viscosity ([1]; x2 = 0.2536): 3.263 ± 0.055 mPa·s
mass density ([1]; x2 = 0.3171): 801.09 ± 0.99 kg/m3
viscosity ([1]; x2 = 0.3171): 2.769 ± 0.045 mPa·s
mass density ([1]; x2 = 0.347): 799.59 ± 0.97 kg/m3
viscosity ([1]; x2 = 0.347): 2.58 ± 0.042 mPa·s
mass density ([1]; x2 = 0.3979): 797.02 ± 0.93 kg/m3
viscosity ([1]; x2 = 0.3979): 2.268 ± 0.036 mPa·s
mass density ([1]; x2 = 0.4503): 794.35 ± 0.88 kg/m3
viscosity ([1]; x2 = 0.4503): 2.022 ± 0.032 mPa·s
mass density ([1]; x2 = 0.5168): 790.9 ± 0.83 kg/m3
viscosity ([1]; x2 = 0.5168): 1.72 ± 0.026 mPa·s
mass density ([1]; x2 = 0.5766): 787.77 ± 0.78 kg/m3
viscosity ([1]; x2 = 0.5766): 1.5 ± 0.023 mPa·s
mass density ([1]; x2 = 0.5969): 786.69 ± 0.76 kg/m3
viscosity ([1]; x2 = 0.5969): 1.443 ± 0.022 mPa·s
mass density ([1]; x2 = 0.684): 782.06 ± 0.69 kg/m3
viscosity ([1]; x2 = 0.684): 1.199 ± 0.017 mPa·s
mass density ([1]; x2 = 0.8058): 775.5 ± 0.6 kg/m3
viscosity ([1]; x2 = 0.8058): 0.943 ± 0.013 mPa·s
mass density ([1]; x2 = 0.9002): 770.39 ± 0.53 kg/m3
viscosity ([1]; x2 = 0.9002): 0.793 ± 0.011 mPa·s

CCC(C)O (stereo not given) [butan-2-ol]
viscosity ([2]; Capillary tube (Ostwald / Ubbelohde) method): 2.907 ± 0.022 mPa·s
speed of sound ([2]; Quartz crystal interferometer (Mittal Enterprises, India)): 1213 ± 2 m/s
mass density ([2]; Vibrating tube method): 802.54 ± 0.42 kg/m3

CC1CCCCC1 [methylcyclohexane] + CCC(C)O
speed of sound ([1]; x1 = 0.0988): 1207 ± 4 m/s
speed of sound ([1]; x1 = 0.2015): 1199 ± 4 m/s
speed of sound ([1]; x1 = 0.3058): 1193 ± 4 m/s
speed of sound ([1]; x1 = 0.3993): 1190 ± 4 m/s
speed of sound ([1]; x1 = 0.5007): 1189 ± 4 m/s
speed of sound ([1]; x1 = 0.6001): 1189 ± 4 m/s
speed of sound ([1]; x1 = 0.7): 1192 ± 4 m/s
speed of sound ([1]; x1 = 0.7737): 1196 ± 4 m/s
speed of sound ([1]; x1 = 0.8996): 1203 ± 4 m/s
speed of sound ([1]; x1 = 0.9489): 1206 ± 4 m/s
mass density ([1]; x1 = 0.1026): 796.47 ± 0.46 kg/m3
viscosity ([1]; x1 = 0.1026): 2.207 ± 0.028 mPa·s
mass density ([1]; x1 = 0.1536): 793.6 ± 0.46 kg/m3
viscosity ([1]; x1 = 0.1536): 1.933 ± 0.024 mPa·s
mass density ([1]; x1 = 0.2015): 791.01 ± 0.46 kg/m3
viscosity ([1]; x1 = 0.2015): 1.72 ± 0.022 mPa·s
mass density ([1]; x1 = 0.2544): 788.28 ± 0.46 kg/m3
viscosity ([1]; x1 = 0.2544): 1.509 ± 0.019 mPa·s
mass density ([1]; x1 = 0.3307): 784.56 ± 0.46 kg/m3
viscosity ([1]; x1 = 0.3307): 1.281 ± 0.017 mPa·s
mass density ([1]; x1 = 0.3604): 783.2 ± 0.46 kg/m3
viscosity ([1]; x1 = 0.3604): 1.216 ± 0.016 mPa·s
mass density ([1]; x1 = 0.4086): 781.07 ± 0.46 kg/m3
viscosity ([1]; x1 = 0.4086): 1.107 ± 0.015 mPa·s
mass density ([1]; x1 = 0.4679): 778.61 ± 0.46 kg/m3
viscosity ([1]; x1 = 0.4679): 1.002 ± 0.013 mPa·s
mass density ([1]; x1 = 0.5012): 777.3 ± 0.46 kg/m3
viscosity ([1]; x1 = 0.5012): 0.953 ± 0.013 mPa·s
mass density ([1]; x1 = 0.5872): 774.19 ± 0.46 kg/m3
viscosity ([1]; x1 = 0.5872): 0.856 ± 0.012 mPa·s
mass density ([1]; x1 = 0.6926): 770.91 ± 0.46 kg/m3
viscosity ([1]; x1 = 0.6926): 0.77 ± 0.011 mPa·s
mass density ([1]; x1 = 0.7844): 768.54 ± 0.46 kg/m3
viscosity ([1]; x1 = 0.7844): 0.729 ± 0.01 mPa·s
mass density ([1]; x1 = 0.8916): 766.35 ± 0.46 kg/m3
viscosity ([1]; x1 = 0.8916): 0.696 ± 0.01 mPa·s
